# Reference: BindingDB's records for patent US12570607 (CSPC Zhongqi Pharmaceutical Technology (Shijiazhuang) Co., 2026)
# Legend:
# Assay in all cases: Inhibitory Effect Assay
# [1] = molecular target: Cyclin-dependent kinase 1 (Homo sapiens, UniProt P06493)
# Description: (§1) A compound dissolved in DMSO (50 nL) was transferred to the kinase reaction plate by using acoustic technology (Echo). 5 μL of a CDK kinase dilution solution was added to the kinase reaction plate and incubated at room temperature for 10 minutes after centrifugation. 5 μL of a substrate premix solution was added to the plate, and the final concentrations of the substrate and the ATP in each well were shown in Table 1. After centrifugation, the reaction was performed at 30° C. for 120 minutes.
# [2] = molecular target: Cyclin-dependent kinase 2 (Homo sapiens, UniProt P24941)
# Description: as §1
# [3] = molecular target: Cyclin-dependent kinase 5 (Homo sapiens, UniProt Q00535)
# Cyclin-dependent kinase 5, sequence (Q00535 whole entry): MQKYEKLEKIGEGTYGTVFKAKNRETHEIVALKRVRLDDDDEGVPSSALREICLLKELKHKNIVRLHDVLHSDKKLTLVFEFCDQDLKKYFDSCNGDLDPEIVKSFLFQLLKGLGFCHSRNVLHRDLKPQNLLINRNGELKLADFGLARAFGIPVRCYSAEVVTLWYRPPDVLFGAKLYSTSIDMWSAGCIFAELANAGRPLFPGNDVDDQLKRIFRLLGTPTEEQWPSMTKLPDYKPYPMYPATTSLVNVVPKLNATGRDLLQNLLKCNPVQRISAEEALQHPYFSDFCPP
# Description: as §1
# [4] = molecular target: Cyclin-dependent kinase 6 (Homo sapiens, UniProt Q00534)
# Cyclin-dependent kinase 6, sequence (Q00534 whole entry): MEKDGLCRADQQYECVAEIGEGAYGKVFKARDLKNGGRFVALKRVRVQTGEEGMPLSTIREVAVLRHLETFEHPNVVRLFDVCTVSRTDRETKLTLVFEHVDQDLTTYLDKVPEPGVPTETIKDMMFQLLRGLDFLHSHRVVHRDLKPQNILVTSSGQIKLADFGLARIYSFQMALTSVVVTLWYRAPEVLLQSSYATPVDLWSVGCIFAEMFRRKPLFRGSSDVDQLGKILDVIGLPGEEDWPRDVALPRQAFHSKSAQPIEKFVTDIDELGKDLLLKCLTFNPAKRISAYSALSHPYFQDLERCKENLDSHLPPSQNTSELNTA
# Description: as §1
# [5] = molecular target: Cyclin-dependent kinase 7 (Homo sapiens, UniProt P50613)
# Cyclin-dependent kinase 7, sequence (P50613 whole entry): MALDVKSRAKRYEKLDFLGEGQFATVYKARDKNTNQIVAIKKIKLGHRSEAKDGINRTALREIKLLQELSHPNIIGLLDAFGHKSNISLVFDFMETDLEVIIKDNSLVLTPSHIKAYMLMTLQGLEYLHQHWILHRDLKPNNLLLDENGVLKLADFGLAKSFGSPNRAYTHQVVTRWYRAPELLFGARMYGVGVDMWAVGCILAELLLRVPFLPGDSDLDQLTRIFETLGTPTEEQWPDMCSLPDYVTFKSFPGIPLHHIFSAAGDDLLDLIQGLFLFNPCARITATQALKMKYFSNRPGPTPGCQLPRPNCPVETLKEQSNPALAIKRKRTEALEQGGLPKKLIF
# Description: as §1
# [6] = molecular target: Cyclin-dependent kinase 9 (Homo sapiens, UniProt P50750)
# Cyclin-dependent kinase 9, sequence (P50750 whole entry): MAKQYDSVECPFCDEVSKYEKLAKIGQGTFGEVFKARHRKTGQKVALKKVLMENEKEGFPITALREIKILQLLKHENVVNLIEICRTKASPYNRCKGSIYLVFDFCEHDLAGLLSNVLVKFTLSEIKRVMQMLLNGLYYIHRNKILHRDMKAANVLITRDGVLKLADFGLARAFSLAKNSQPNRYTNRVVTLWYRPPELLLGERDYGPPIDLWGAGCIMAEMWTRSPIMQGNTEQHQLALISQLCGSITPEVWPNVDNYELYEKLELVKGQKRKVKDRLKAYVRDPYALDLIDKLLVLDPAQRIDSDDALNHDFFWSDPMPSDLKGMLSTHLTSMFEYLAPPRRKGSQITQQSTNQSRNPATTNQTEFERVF
# Description: as §1
# [7] = molecular target: Cyclin-dependent kinase 4 (Homo sapiens, UniProt P11802)
# Cyclin-dependent kinase 4, sequence (P11802 whole entry): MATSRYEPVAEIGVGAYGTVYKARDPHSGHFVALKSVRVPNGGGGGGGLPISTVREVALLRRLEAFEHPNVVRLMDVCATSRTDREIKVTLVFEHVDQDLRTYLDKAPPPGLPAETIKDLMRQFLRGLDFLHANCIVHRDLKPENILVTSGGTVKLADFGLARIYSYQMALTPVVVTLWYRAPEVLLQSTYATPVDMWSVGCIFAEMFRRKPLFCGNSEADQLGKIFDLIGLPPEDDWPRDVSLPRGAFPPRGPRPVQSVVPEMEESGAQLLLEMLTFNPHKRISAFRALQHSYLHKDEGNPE
# Description: as §1
# Cyclin-dependent kinase 1, sequence (P06493 whole entry): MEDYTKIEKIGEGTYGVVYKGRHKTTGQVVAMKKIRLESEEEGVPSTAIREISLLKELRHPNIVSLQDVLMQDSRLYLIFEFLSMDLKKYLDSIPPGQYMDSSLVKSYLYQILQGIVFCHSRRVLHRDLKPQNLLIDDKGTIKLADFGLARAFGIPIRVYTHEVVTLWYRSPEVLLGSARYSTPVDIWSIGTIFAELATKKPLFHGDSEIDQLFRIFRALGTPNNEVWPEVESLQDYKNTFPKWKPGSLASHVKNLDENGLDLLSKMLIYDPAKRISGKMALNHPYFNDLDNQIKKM
Structure (SMILES),IC50 [1] [nM],IC50 [2] [nM],IC50 [3] [nM],IC50 [4] [nM],IC50 [5] [nM],IC50 [6] [nM],IC50 [7] [nM]
"COc1cc(F)ccc1-c1cc(NC(=O)C2CCCC(NC(C)=O)C2)ncc1F (stereo unspecified) [US12570607, Example 3]",262,2120,721,1390,6210,16.8,
"COc1cc(F)ccc1-c1cc(NC(=O)[C@H]2CCC[C@@H](NC(C)=O)C2)ncc1F [US12570607, Example 5]",,475,,1120,2750,7.9,429
"CC(=O)N[C@@H]1CCC[C@H](C(=O)Nc2cc(-c3ccc(F)cc3OC(C)C)c(F)cn2)C1 [US12570607, Example 8]",214,991,614,1770,> 9900,7.21,273
"COc1ccccc1-c1cc(NC(=O)[C@H]2CCC[C@@H](NC(C)=O)C2)ncc1F [US12570607, Example 17]",193,1440,357,3170,5480,7.12,474
"CC(=O)N[C@@H]1CCC[C@H](C(=O)Nc2cc(-c3cccc4ccoc34)c(F)cn2)C1 [US12570607, Example 19]",87.1,638,,297,1170,7.65,196
"COc1cc(F)ccc1-c1cc(NC(=O)[C@H]2CCC[C@@H](NS(C)(=O)=O)C2)ncc1F [US12570607, Example 25]",265,2050,716,2360,4360,7.54,811
"COc1cc(F)ccc1-c1cc(NC(=O)[C@H]2CCC[C@@H](NC(=O)CC#N)C2)ncc1F [US12570607, Example 32]",86.7,1070,329,2450,1650,6.86,353
"COc1cc(F)ccc1-c1cc(NC(=O)[C@H]2CCC[C@@H](NC(=O)C3(C#N)CC3)C2)ncc1F [US12570607, Example 33]",78.8,761,168,1760,1260,6.68,395
"COC(=O)N[C@@H]1CCC[C@H](C(=O)Nc2cc(-c3ccc(F)cc3OC)c(F)cn2)C1 [US12570607, Example 36]",97,558,209,3370,3720,6.88,630
"CNC(=O)N[C@@H]1CCC[C@H](C(=O)Nc2cc(-c3ccc(F)cc3OC)c(F)cn2)C1 [US12570607, Example 37]",82,688,248,2640,,6.44,361
"COc1cc(F)ccc1-c1cc(NC(=O)[C@H]2CCC[C@@H](NC(=O)Nc3cc(C)no3)C2)ncc1F [US12570607, Example 41]",196,1250,361,4980,1080,7.65,629
"COc1cc(F)ccc1-c1cc(NC(=O)[C@H]2CCC[C@@H](NC(=O)C(F)(F)F)C2)ncc1F [US12570607, Example 42]",72.6,253,140,1010,,6.66,184
"COc1cc(F)ccc1-c1cc(NC(=O)[C@H]2CCC[C@@H](NC(=O)c3ccccn3)C2)ncc1F [US12570607, Example 43]",80,823,296,3080,2410,7.17,582
"COc1cc(F)ccc1-c1cc(NC(=O)[C@H]2CCC[C@@H](NC(=O)CO)C2)ncc1F [US12570607, Example 45]",93.2,564,284,2790,4440,6.92,785
"COc1cc(F)ccc1-c1cc(NC(=O)[C@H]2CCC[C@@H](NC(=O)[C@H](C)O)C2)ncc1F [US12570607, Example 48]",133,,301,3630,2150,6.84,767
"COc1cc(F)c(F)cc1-c1cc(NC(=O)[C@H]2CCC[C@@H](NC(=O)C3(C#N)CC3)C2)ncc1F [US12570607, Example 67]",,392,82.9,600,1420,5.45,268
"COc1cc(F)c(F)cc1-c1cc(NC(=O)[C@H]2CCC[C@@H](NC(=O)CO)C2)ncc1F [US12570607, Example 68]",73.6,274,162,2030,2630,5.55,402
